Measured values from patent US10351547B2, “Somatostatin modulators and uses thereof” (priority 2016, dated 2019).
pEC50: −log10 of the molar value. Where two headings read alike, the source gives them in different places.

Biological target: human SSTR2 (Homo sapiens (Human), UniProt P30874)
Assay: Human SSTR2 intracellular cAMP functional assay for agonists (HTRF)
Assay type: cell-based
How it was run: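 Cells bearing human SSTR2 exposed to compound for 20 minutes at 37 °C; after lysis, cAMP measured by time-resolved fluorescence (HTRF) and converted via a standard curve. EC50 calculated from cAMP versus compound concentration.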

[1] = CHO-K1 cells stably expressing human SSTR2, NKH477-stimulated cAMP, read-out: EC50 (inhibition of cAMP activities via human SST2R)

Chain of human SSTR2 (P30874 whole entry): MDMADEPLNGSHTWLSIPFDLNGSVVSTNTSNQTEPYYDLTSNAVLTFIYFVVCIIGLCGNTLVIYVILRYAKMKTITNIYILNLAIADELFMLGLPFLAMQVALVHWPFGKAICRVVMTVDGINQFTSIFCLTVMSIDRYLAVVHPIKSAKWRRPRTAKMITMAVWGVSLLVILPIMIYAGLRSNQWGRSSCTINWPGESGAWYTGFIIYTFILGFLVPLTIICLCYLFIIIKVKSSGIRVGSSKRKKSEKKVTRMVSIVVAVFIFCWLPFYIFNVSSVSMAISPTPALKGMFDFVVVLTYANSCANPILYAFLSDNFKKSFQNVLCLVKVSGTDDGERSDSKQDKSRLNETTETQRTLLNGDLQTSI

| SMILES | pEC50 | pEC50 [1] |
| --- | --- | --- |
| N#Cc1cccc(-c2ccc3ncc(-c4cc(F)cc(CN5CC(F)(F)C5)c4)c(N4CCC(N)CC4)c3c2)c1O [2-71, 3-[4-(4-aminopiperidin-1-yl)-3-{3-[(3,3-difluoroazetidin-1-yl)methyl]-5-fluorophenyl}quinolin-6-yl]-2-hydroxybenzonitrile] | 6.00 to 7.00 | – |
| Cn1cc(-c2ccc3ncc(-c4cc(F)cc(F)c4)c(N4CC[C@H]5NCCO[C@@H]5C4)c3c2)c(C=NO)n1 (relative stereo) [2-260, N-[(4-{4-[trans-octahydro-1H-pyrido[3,4-b]morpholin-6-yl]-3-(3,5-difluorophenyl)quinolin-6-yl}-1-methyl-1H-pyrazol-3-yl)methylidene]hydroxylamine] | – | > 8.00 |
| COC(=O)Nc1c(F)cccc1-c1ccc2ncc(-c3cc(C)cc(F)c3)c(N3CCC(N)CC3)c2c1 [2-209, methyl N-{2-[4-(4-aminopiperidin-1-yl)-3-(3-fluoro-5-methylphenyl)quinolin-6-yl]-6-fluorophenyl}carbamate] | – | > 8.00 |
| CNC(=O)[C@@H]1CN(c2c(-c3cc(F)cc(F)c3)cnc3ccc(-c4cccc(C#N)c4O)cc23)CC[C@H]1N (relative stereo) [2-149, trans-4-Amino-1-[6-(3-cyano-2-hydroxyphenyl)-3-(3,5-difluorophenyl)quinolin-4-yl]-N-methylpiperidine-3-carboxamide] | 6.00 to 7.00 | – |
| CONC(=O)Nc1c(F)cc(F)cc1-c1ccc2ncc(-c3cc(F)cc(F)c3)c(N3CCC(N)CC3)c2c1 [2-139, 1-{2-[4-(4-aminopiperidin-1-yl)-3-(3,5-difluorophenyl)quinolin-6-yl]-4,6-difluorophenyl}-3-methoxyurea] | – | > 8.00 |
| Cc1cc(F)cc(-c2nnc3cc(Cl)c(-c4cc(F)cc(C(N)=O)c4)cc3c2N2CC[C@@H](N)[C@H](F)C2)c1 (relative stereo) [1-5, 3-{4-[trans-4-amino-3-fluoropiperidin-1-yl]-7-chloro-3-(3-fluoro-5-methylphenyl)cinnolin-6-yl}-5-fluorobenzamide] | – | > 8.00 |
| CO[C@@H]1CN(c2c(-c3cc(C)cc(F)c3)nnc3cc(Cl)c(-c4cc(F)cc(C(N)=O)c4)cc23)CC[C@H]1N (relative stereo) [1-10, 3-{4-[trans-4-amino-3-methoxypiperidin-1-yl]-7-chloro-3-(3-fluoro-5-methylphenyl)cinnolin-6-yl}-5-fluorobenzamide] | – | > 8.00 |
| Cc1cc(F)cc(-c2nnc3cc(Cl)c(-c4cc(F)cc(C(N)=O)c4)cc3c2N2CCC(N)CC2)c1 [1-4, 3-[4-(4-aminopiperidin-1-yl)-7-chloro-3-(3-fluoro-5-methylphenyl)cinnolin-6-yl]-5-fluorobenzamide] | – | > 8.00 |
| Cc1cc(F)cc(-c2ccc3nnc(-c4cc(F)cc(C(N)=O)c4)c(N4CCC(N)CC4)c3c2)c1 [1-15, 3-[4-(4-aminopiperidin-1-yl)-6-(3-fluoro-5-methylphenyl)cinnolin-3-yl]-5-fluorobenzamide] | 7.00 to 8.00 | – |
| Cc1ccnc(-c2ccc3ncc(-c4cc(F)cc(F)c4)c(N4CC[C@H]5NCCO[C@@H]5C4)c3c2)c1O [2-258, 2-{4-[trans-octahydro-1H-pyrido[3,4-b]morpholin-6-yl]-3-(3,5-difluorophenyl)quinolin-6-yl}-4-methylpyridin-3-ol] | – | > 8.00 |
| COC(=O)Nc1c(F)cc(F)cc1-c1ccc2ncc(-c3cc(F)cc(OC)c3)c(N3CCC(N)CC3)c2c1 [2-165, methyl N-{2-[4-(4-aminopiperidin-1-yl)-3-(3-fluoro-5-methoxyphenyl)quinolin-6-yl]-4,6-difluorophenyl}carbamate] | – | > 8.00 |
| COC(=O)Nc1c(F)cc(F)c(F)c1-c1ccc2ncc(-c3cc(F)cc(F)c3)c(N3CCC(N)CC3)c2c1 [2-123, methyl N-{2-[4-(4-aminopiperidin-1-yl)-3-(3,5-difluorophenyl)quinolin-6-yl]-3,4,6-trifluorophenyl}carbamate] | – | > 8.00 |
